According to patent publication US10987371B2 (priority 2017, dated 2021):

What was measured:
[1] = tested on: Ebola; details: mouse, in vivo; cited from earlier work
[2] = tested on: ZIKV PLCal_ZV; type: cell-based
[3] = tested on: ZIKV PRVABC59 isolate; details: mouse, in vivo
[4] = tested on: ZIKV PLCal_ZV; test: microbe, parasite or virus in culture; type: cell-based; details: Zika virus, Vero
[5] = tested on: Vero E6 cells; details: African green monkey
[6] = tested on: ZIKV nonstructural protein 1 (NS1); type: cell-based
[7] = human
[8] = in vivo
[9] = in vivo; details: male, C57BL/6, mouse

NC(=O)c1nc(F)c[nH]c1=O [T-705]
protection in IFNAR-/- mice [1]: 100%

O=c1c(O[C@@H]2O[C@H](CO)[C@@H](O)[C@H](O)[C@H]2O)c(-c2ccc(O)c(O)c2)oc2cc(O)cc(O)c12 [Q3G, Quercetin-3-β-O-D-glucoside]
concentration at which complete inhibition of cytopathic effects (CPE) was observed [2]: 6.9 µM | average weight loss [3]: ~20% | animals surviving the infection ([3]; ip, 50 mg/kg): 50% | EC50 ([4]; read-out: EC50 against ZIKV PLCal_ZV): 1.2 to 1.3 µM | EC90 ([4]; read-out: EC90 against ZIKV PLCal_ZV): ~1.5 µM | cell viability [5]: 100% | concentrations with statistically significant reductions in NS1 [6]: ≥ 0.6 µM | calculated maximum recommended starting dose (MRSD) [7]: 0.813 mg/kg | daily dose to start clinical trials [7]: 56.91 mg | time within which all mice died ([8]; male, C57BL/6, mouse, ip, 400 mg/kg): ≤ 2 days | survival and signs of toxicity ([8]; mouse): without signs of toxicity | deaths ([8]; mouse, ip, 200 mg/kg): One mouse | weight loss of the surviving mice ([8]; mouse, ip, 200 mg/kg): ~15% | NOAEL [9]: 100 mg/kg

CCN(CC)CCOc1ccc(C(=C(Cl)c2ccccc2)c2ccccc2)cc1 [clomiphene]
protection of mice [1]: 90%

CCC(CC)COC(=O)[C@H](C)N[P@](=O)(OC[C@H]1O[C@@](C#N)(c2ccc3c(N)ncnn23)[C@H](O)[C@@H]1O)Oc1ccccc1 [GS-5734]
protection in mice [1]: 100%

CN(C)CCOc1ccc(/C(=C(/CCCl)c2ccccc2)c2ccccc2)cc1 [toremifene]
protection of mice [1]: 50%
